Common to all, as to format: cell-based
The test system of experiment [1] is SH-SY5Y human neuroblastoma cells.
Experiment [2] has the same test system. This is another data set of the same source.
Experiment [3] shares this test system. This is another data set of the same source.

The record followed here is patent US9249194B2 (priority 2009, dated 2016).

Consider `OO` [H2O2, hydrogen peroxide], for which the “neurite retraction after hydrogen peroxide treatment” value in experiment [1] is reported as “neurites shorten”.

Turning to `CCCC(=O)Nc1ncnc2c1ncn2[C@@H]1O[C@@H]2COP(=O)(O)O[C@H]2[C@H]1OC(=O)CCC` [db-cAMP, dibutyril c-AMP], the “elongation / length of the neurites” value in experiment [2] was “triggers elongation of neurites”. For the molecule lysophosphatidic acid [LPA], in experiment [3], the “length / collapsing of neurites with increasing doses of LPA” value is recorded as “linear retraction of the length of the neurites” and the “neurites after LPA treatment (retraction or preservation)” value is on record as “retraction of the neurites”.
